In US20110166223A1, “METHODS OF INHIBITING FGFR3 SIGNALING” (CEDARS-SINAI MEDICAL CENTER, priority 2008, published 2011):
Each block holds one compound with its values, some of them ahead of it.

Assays:
[1] = test system: FGF2/FGFR3-mediated growth-arrest of rat chondrosarcoma (RCS) cells; conditions: previous work [9, 12]; cited from earlier work
[2] = molecular target: T1, recombinant tyrosine kinase (TK) domain of FGFR3 (Homo sapiens, UniProt P22607); conditions: previous work [9, 12]; cited from earlier work
T1 construct: recombinant tyrosine kinase (TK) domain of FGFR3 (Glu-322-Thr-806; Cell Signaling); purchased Cell Signaling

[3] = molecular target: T1, recombinant tyrosine kinase (TK) domain of FGFR3; test: Cell-free FGFR3 kinase assay with STAT1 as substrate; assay type: biochemical; conditions: added directly to the kinase reaction; FIG. 4
Method: FIG. 4, in accordance with an embodiment herein, depicts 4,4′,4″,4′″-[carbonyl-bis[imino-5,1,3-benzenetriyl bis-{carbonylimino}]]tetrakis-{benzene-1,3-disulfonic acid} inhibits FGFR3 activity in a kinase assay. (a, b) Cell-free kinase assays were carried out as described herein, with recombinant tyrosine kinase (TK) domain of FGFR3 as a kinase, recombinant STAT1 as a substrate, and NF449 added directly to the kinase reaction. FGFR3-mediated phosphorylation of STAT1 was detected by WB with P-STAT1 (Y^701) antibody. The membrane was reprobed with FGFR3 and STAT1 antibodies to control for kinase and substrate quantity. The sample with ATP omitted serves as a negative control for the kinase reaction. Note the FGFR3-mediated phosphorylation of STAT1 is inhibited by 4,4′,4″,4′″-[carbonyl-bis[imino-5,1,3-benzenetriyl bis-{carbonylimino}]]tetrakis-{benzene-1,3-disulfonic acid}. The P-STAT1 and STAT1 signal was quantified by densitometry and expressed as a ratio between P-STAT1 and STAT1 signal for each given sample (b, lower graph). (c) The FGFR3 kinase assay was carried-out as described in (a) with 4,4′,4″,4′″-[carbonyl-bis[imino-5,1,3-benzenetriyl bis-{carbonylimino}]]tetrakis-{benzene-1,3-disulfonic acid}, 8,8′-[carbonylbis[imino-3,1-phenylenecarbonylimino{4-methyl-3,1-phenylene}carbonylimino]]bis-1,3,5-naphthalenetrisulfonic acid or 8,8′-[carbonylbis[imino-3,1-phenylene]]bis-{1,3,5-naphthalenetrisulfonic acid} added to the kinase reaction. Note the differential effects of 8,8′-[carbonylbis[imino-3,1-phenylenecarbonylimino{4-methyl-3,1-phenylene}carbonylimino]]bis-1,3,5-naphthalenetrisulfonic acid and 8,8′-[carbonylbis[imino-3,1-phenylene]]Bis-{1,3,5-naphthalenetrisulfonic acid} on the FGFR3-mediated phosphorylation of STAT1, which corresponds to their activity in the RCS growth-arrest experiment (lower graph). Data are an average from four wells with the indicated standard deviation. Statistically significant rescue of the growth arrest is indicated (Student's I-test; *-p<0.01).
OPM2 and KMS11 cells were lysed in ice-cold immunoprecipitation buffer (50 mM Tris-HCl pH 7.4, 150 mM NaCl, 0.5% NP-40, 1 mM EDTA, 25 mM NaF) supplemented with proteinase inhibitors and 10 mM sodium orthovanadate. Protein samples were resolved by SDS-PAGE and transferred onto a PVDF membrane. The following antibodies were used: Erk1/2, P-Erk1/2^T202/Y204, STAT1, P-STAT1^Y701 (Cell Signaling, Beverly, Mass.) and FGFR3 (Santa Cruz Biotechnology, Santa Cruz, Calif.). Western blotting signal was quantified by determining the integrated optical density (I.O.D.) of a given band using Scion Image software (Scion Corporation, Frederick, Mass.). Immunoprecipitations and FGFR3 kinase assays were performed as described. Briefly, the pRK7 vector encoding C-terminally FLAG-tagged K650E-FGFR3 was transfected into CHO cells using FuGENE6 reagent according to the manufacturer's protocol (Roche Applied Science, Indianapolis, Ind.). 48 hours after transfection, cells were treated with 20 ng/ml of FGF2 for 15 minutes and K650E-FGFR3 was immunoprecipitated from 800 μg of cell lysate protein using 4 μg of anti-FLAG antibody (Sigma-Aldrich, St. Louis, Mo.). Cells transfected with a plasmid encoding green fluorescent protein (pCCEY) serve as a negative control for the immunoprecipitation. Immunocomplexes were washed two times with kinase buffer (60 mM HEPES-NaOH pH 7.5, 3 mM MgCl2, 3 mM MnCl2, 3 μM Na3VO4, 1.2 mM dithiothreitol), and the kinase reactions were performed for 30 minutes at 30° C. in the presence of 2.5 μg of polyethylene glycol, 10 μM ATP, 300 ng of recombinant STAT1 (Active Motif, Carlsbad, Calif.) as a substrate, and NF449 added directly to the kinase reaction. Kinase assays utilizing recombinant tyrosine kinase (TK) domain of FGFR3 (Glu-322-Thr-806; Cell Signaling) were carried-out similarly, with 300 ng of kinase used in 50 μl reaction, and suramin, NF449 and NF023 added directly to the kinase reaction. […]

[4] = test system: FGF2/FGFR3-mediated growth-arrest of rat chondrosarcoma (RCS) cells
Text: In this assay, the FGF2/FGFR3-mediated growth-arrest of rat chondrosarcoma (RCS) cells is used as a reporter, thus allowing for elimination of toxic compounds as false-positive hits (Krejci, et al., Invest New Drugs 2007, 25: 391-395).
Rat chondrosarcoma chondrocytes (RCS), chinese hamster ovary (CHO) cells and MM cell lines OPM2 and KMS11 were propagated in DMEM, Opti-MEM or RPMI media (Gibco, Gaitherbsburg, Md.), supplemented with 10% fetal bovine serum (Atlanta Biological, Nordeross, Ga.) and antibiotics. […] For the RCS growth-arrest experiments shown at FIGS. 1 and 4c, 1×10^4 RCS chondrocytes were seeded in 24-well tissue culture plates (Costar, Cambridge, Mass.), treated as indicated for 72 hours, and counted. FGF2 was obtained from R&D Systems (Minneapolis, Minn.); C-natriuretic peptide, suramin, NF023 and NF449 were from Calbiochem (San Diego, Calif.).

T1 sequence (P22607 322-806): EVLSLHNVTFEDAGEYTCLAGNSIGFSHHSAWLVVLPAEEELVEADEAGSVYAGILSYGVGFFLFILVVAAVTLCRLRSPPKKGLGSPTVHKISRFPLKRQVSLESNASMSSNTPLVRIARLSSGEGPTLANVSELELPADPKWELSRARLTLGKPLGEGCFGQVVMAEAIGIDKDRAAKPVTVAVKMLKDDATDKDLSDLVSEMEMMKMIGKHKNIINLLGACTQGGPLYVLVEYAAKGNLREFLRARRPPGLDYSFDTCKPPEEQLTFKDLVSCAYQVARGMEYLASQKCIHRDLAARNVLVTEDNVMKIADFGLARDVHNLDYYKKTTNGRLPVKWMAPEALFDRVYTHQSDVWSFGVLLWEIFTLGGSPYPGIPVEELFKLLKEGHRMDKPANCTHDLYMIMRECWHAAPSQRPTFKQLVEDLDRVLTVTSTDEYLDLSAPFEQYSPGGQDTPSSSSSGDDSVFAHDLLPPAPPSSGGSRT

Compound: Cc1c[nH]c(/C=C2\C(=O)Nc3ccccc32)c1CCC(=O)O [SU5402]
concentration range inhibiting RCS growth arrest [1]: 2 to 20 µM
concentration range inhibiting FGFR3 kinase activity [2]: 2 to 20 µM

effect on FGFR3 kinase activity (in words) [3]: inhibited FGFR3 kinase activity
Compound: Cc1ccc(C(=O)Nc2ccc(S(=O)(=O)O)c3cc(S(=O)(=O)O)cc(S(=O)(=O)O)c23)cc1NC(=O)c1cccc(NC(=O)Nc2cccc(C(=O)Nc3cc(C(=O)Nc4ccc(S(=O)(=O)O)c5cc(S(=O)(=O)O)cc(S(=O)(=O)O)c45)ccc3C)c2)c1 [suramin, 8,8′-[carbonylbis[imino-3,1-phenylenecarbonylimino{4-methyl-3,1-phenylene}carbonylimino]]bis-1,3,5-naphthalenetrisulfonic acid, reference compound]
effect on FGF2/FGFR3-mediated growth arrest (in words) ([4]; RCS chondrocytes, FIGS. 1, 4c): reversed the FGF2/FGFR3-mediated growth arrest

Compound: C-natriuretic peptide [CNP, reference compound]
rescue of the FGF2-mediated RCS growth-arrest ([4]; FIG. 1b, each agent alone, 72 hours): ~23%
